Reference: the OPERA property sets (Mansouri et al. 2018)
Where a SMILES comes first, the peptide text is derived from it. [ ]: non-standard residue; d: D form. ξ: configuration not given here. ξY = NC(Cc1ccc(O)cc1)C(=O)O

| SMILES | logP |
| --- | --- |
| CNC(C)Cc1ccc(N)cc1 (configuration not stated) | 0.81 |
| CC1CCC2CC(=O)N(CCc3ccccc3)C3OC4(C)CCC1C23OO4 (configuration not stated) | 3.94 |
| NC(Cc1c[nH]c2ccccc12)C(=O)NC(Cc1c[nH]c2ccccc12)C(=O)NC(Cc1c[nH]c2ccccc12)C(=O)O (stereo not drawn) (H-Trp-Trp-Trp-OH; configuration not given here) | 0.66 |
| CCOC(=O)OC(C)C1=CCSC2C(NC(=O)C(=NOC)c3csc(N)n3)C(=O)N12 (configuration not stated) | 0.96 |
| NC(=O)Cc1ccc(O)cc1 | -0.09 |
| COc1ccc(N2CC(N3CCCCC3)=NC2=O)cc1 | 1.5 |
| c1ccc(CN2CCN(CCCOn3nnc4ccccc43)CC2)cc1 | 4 |
| CCNC(=NC#N)NS(=O)(=O)c1cnccc1NC1CCCCC1 | 0.94 |
| CCCCCCNc1[nH]cnc2ncnc1-2 | 3.16 |
| CC(C)NC(=NC#N)NS(=O)(=O)c1cnccc1NCc1ccccc1 | 1.36 |
| COc1ccc2cc(C(C)C(=O)OCCOC(C)=O)ccc2c1 (configuration not stated) | 3.5 |
| Nc1nnnn1-c1c(Cl)cccc1Cl | 1.56 |
| Cc1cccc(C)c1Cc1cn[nH]c1 | 3.6 |
| COc1cc(OC)nc(Oc2cccc(C(F)(F)F)c2C(=O)O)n1 | 2.7 |
| CCOc1cc2ncnc(Nc3cccc(Br)c3)c2cc1OCC | 4.4 |
| CCOC(=O)c1cccc(CN)c1 | 1.44 |
| NC(=O)c1cccc(Cn2cccn2)c1 | 0.71 |
| CCN(C)CC(=O)Nc1c(C)cccc1C | 1.82 |
| O=C(O)C(Cc1ccccc1)NC(=O)C1CCCN1 (stereo not drawn) (H-Pro-Phe-OH; configuration not given here) | -2.07 |
| CC(C)CNc1ccncc1S(=O)(=O)NC(=NC#N)NC(C)C | 0.88 |
| CCCC(=NOCC)C1=C(O)CC2(CCC(C)C2)OC1=O (configuration not stated) | 3.66 |
| CCC(C)C(NC(=O)C(N)Cc1ccc(O)cc1)C(=O)NC(CC(C)C)C(=O)NCC(=O)O (configuration not stated) (H-YILG-OH; configuration not given here) | -1.49 |
| CNc1nccn2c(Cc3ccccc3F)nnc12 | 1.56 |

| SMILES | logP |
| --- | --- |
| CCNc1ccncc1S(=O)(=O)NC(=NC#N)NC(C)C | -0.24 |
| CCC(C)C(N)C(=O)NC(C(=O)NC(C(=O)O)C(C)O)C(C)CC (stereo not drawn) (H-Ile-Ile-Thr-OH; configuration not given here) | -2.23 |
| COC1C(OC(C)=O)CC(=O)OC(C)CC=CC=CC(=O)C(C)CC(CC=O)C1OC1OC(C)C(OC2CC(CO)C(OC(=O)CC(C)C)C(C)O2)C(N(C)C)C1O (configuration not stated) | 3.52 |
| CCOCCCNc1[nH]cnc2ncnc1-2 | 1.15 |
| O=c1cc(CSc2ccccn2)occ1O | 1.14 |
| COC(=O)C(C)NP(=O)(OCC1C=CC(n2cc(C)c(=O)[nH]c2=O)O1)Oc1cccc(Cl)c1 (configuration not stated) | 1.42 |
| O=C1N=C(N2CCOCC2)CN1c1ccc(Cl)cc1 | 1.5 |
| CCC(C)C(NC(=O)C(N)CC(C)C)C(=O)NC(C(=O)O)C(C)O (stereo not drawn) (H-Leu-Ile-Thr-OH; configuration not given here) | -2.14 |
| Clc1ccc(CNc2ncnc3nc[nH]c23)cc1 | 2.9 |
| CCc1cccc2nc(N)nc(N)c12 | 1.69 |
| COc1cccc(CNc2ncnc3nc[nH]c23)c1 | 2.1 |
| CC(C)(C)Nc1nc(N)nc(O)n1 | 2.07 |
| CC(=O)N(O)CCCCCNC(=O)CCC(=O)N(O)CCCCCNC(=O)CCC(=O)N(O)CCCCCNC=O | -0.33 |
| CC(=O)OCCCOC(=O)C(C)c1cccc(C(=O)c2ccccc2)c1 (configuration not stated) | 3.6 |
| CC(C)CC(NC(=O)C(NC(=O)C(N)C(C)O)C(C)C)C(=O)O (stereo not drawn) (H-Thr-Val-Leu-OH; configuration not given here) | -1.97 |
| CC(C)(C)N=O | 0.91 |
| Cc1c(C)c2ccc3occ(C)c3c2oc1=O | 3.34 |
| CC(C)CC(N)C(=O)NC(CC(C)C)C(=O)N1CCCC1C(=O)NC(CC(C)C)C(=O)O (configuration not stated) (H-LLPL-OH; configuration not given here) | -1 |
| C=C(C)CC(C)(CCC=C(C)C)OC(C)=O (configuration not stated) | 4.36 |
| CC(=O)N(O)CCCCCNC(=O)CCC(=O)N(O)CCCCCNC(=O)CCC(=O)N(O)CCCCCNS(C)(=O)=O | -0.36 |
| CCC(C)C(NC(=O)C(C)NC(=O)C(CC(C)C)NC(=O)C(N)CO)C(=O)NC(C(=O)O)C(C)C (configuration not stated) (H-SLAIV-OH; configuration not given here) | -1.94 |
| CC(=NNC(=O)c1ccc(Br)cc1)c1cnccn1 | 2.9 |
| CSCCC(N)C(=O)NC(CC(C)C)C(=O)NC(Cc1ccccc1)C(=O)O (configuration not stated) | -1.03 |

| SMILES | logP |
| --- | --- |
| O=c1cc(-c2ccccc2)on1-c1ccc(Cl)cc1 | 4.1 |
| COc1cc(OC)c2c(c1)OC(c1ccc(OC)c(OC)c1)C(O)C2 (configuration not stated) | 3.1 |
| O=C(NC1CCCCCC1)NS(=O)(=O)c1cnccc1NC1CCCCC1 | 4.62 |
| COc1cc(OS(C)(=O)=O)ccc1-c1cn2cccnc2n1 | 1.05 |
| Nc1nnnn1-c1cc(Cl)c(Cl)cc1Cl | 2.3 |
| c1nc(N2CCCC2)c2[nH]cnc2n1 | 1.68 |
| C=CCC(C)(C(=O)OCC)S(=O)(=O)c1ccc([N+](=O)[O-])cc1 (configuration not stated) | 2.3 |
| O=C(C=Cc1ccc([N+](=O)[O-])o1)NN=Cc1ccc([N+](=O)[O-])o1 | 2.79 |
| CNC(=O)Oc1ccc2c(c1)CC(c1ccc(OC)cc1)C(OC(C)=O)C(=O)N2CCN(C)C (configuration not stated) | 2.31 |
| COc1ccc(CCNCC(O)COc2ccc(-c3nc(C)c(C)[nH]3)cc2)cc1OC (configuration not stated) | 3.22 |
| CC(=O)C(Cc1ccccc1)=C(C)O | 1.89 |
| COc1cccc2c1C(=O)c1c(O)c3c(c(O)c1C2=O)CC(O)(C(=O)CO)CC3OC1CC(N(C)C)C(O)C(C)O1 (configuration not stated) | 1.28 |
| CC1=CCCC(C)C12CCC(C(C)(C)O)C2 (configuration not stated) | 4.59 |
| Cc1cccc2c1OCN(CCO[N+](=O)[O-])C2=O | 2.48 |
| CC1CC(=O)NN=C1c1ccc(-n2ccnc2)cc1 (configuration not stated) | 1.29 |
| Nc1ccc(S(=O)(=O)Nc2cc(Br)cc3[nH]ccc23)cc1 | 2.77 |
| CC(=O)O[C@H]1[C@@H](O)C[C@H](O[C@H]2[C@@H](O)C[C@H](O[C@H]3[C@@H](O)C[C@H](O[C@H]4CC[C@@]5(C)[C@H](CC[C@@H]6[C@@H]5C[C@@H](O)[C@]5(C)[C@@H](C7=CC(=O)OC7)CC[C@]65O)C4)O[C@@H]3C)O[C@@H]2C)O[C@@H]1C | 2 |
| CSc1ncc([N+](=O)[O-])n1C | 0.94 |
| CC(=O)Oc1cc(OC(C)CCCc2ccccc2)cc2c1C1CC(O)CCC1C(C)N2 (configuration not stated) | 5.7 |
| NC(Cc1ccc(O)cc1)C(=O)NCC(=O)NCC(=O)O (stereo not drawn) (H-[ξY]-Gly-Gly-OH) | -3.51 |
| O=C(O)CCCCON=C(c1ccnnc1)c1cccc(C(F)(F)F)c1 | 2.99 |
| c1[nH]nc2c1CCC1c3n[nH]cc3CCC21 (configuration not stated) | 0.3 |
| CC1CN(CC2CN=C(N)O2)CC(C)O1 (configuration not stated) | 0.16 |

| SMILES | logP |
| --- | --- |
| CC(C)OC(=O)C(=Cc1ccccc1)S(=O)(=O)c1ccc([N+](=O)[O-])cc1 | 3.62 |
| CC(C)NC(CO)C(O)c1ccccc1 (configuration not stated) | 1.19 |
| CCc1c(C)nc2c3c(c(C(=O)N(C)C)cn12)CCC(c1ccccc1)O3 (configuration not stated) | 3.2 |
| Cc1sc2ccc3c(C)cc(=O)oc3c2c1C | 3.65 |
| COc1cc(Cl)cc(Cl)c1O | 2.86 |
| COc1ccc(CCNCC(O)COc2ccc(-c3nc(C)c(Cl)[nH]3)cc2)cc1OC (configuration not stated) | 3.9 |
| Cc1cc2c(ccc3c(C)cc(=O)n(C)c32)o1 | 3.08 |
| CC(C)(C)[N+]([O-])=Cc1cc[n+]([O-])cc1 | -1.05 |
| Cc1c2ccoc2cc2oc(=O)ccc12 | 2.33 |
| Cc1ccccc1CNc1[nH]cnc2ncnc1-2 | 2.58 |
| COc1ccc(C2Cc3cc(OC(=O)C(C)(C)C)ccc3N(CCN(C)C)C(=O)C2OC(C)=O)cc1 (configuration not stated) | 4.9 |
| Cc1cc2c(ccc3c(C)cc(=O)oc32)o1 | 3.08 |
| CCNC(=NC#N)NS(=O)(=O)c1cnccc1NC1CCCCCC1 | 1.53 |
| CCc1c(O)c(=O)ccn1CCCCO | -0.28 |
| Clc1ccc(-c2noc(N3CCOCC3)n2)cc1 | 3.1 |
| CNc1ncnc2c1ncn2C1OC(CO)C(O)C1O (configuration not stated) | -0.52 |
| CCC(C)C(N)C(=O)NC(C)C(=O)NC(Cc1ccc(O)cc1)C(=O)NC(Cc1c[nH]c2ccccc12)C(=O)NCC(=O)O (configuration not stated) (H-IAYWG-OH; configuration not given here) | -1.47 |
| CCN(CC)C(=O)c1cn2c(C)c(C)nc2c2c1CCC(c1ccccc1)O2 (configuration not stated) | 4 |
| CNS(=O)(=O)c1nnc(NC(C)=O)s1 | 0.49 |
| O=c1cc(CSc2nc3ccccc3[nH]2)occ1O | 1.51 |
| O=c1cc(-c2ccc(Cl)cc2)oc2ccccc12 | 3.89 |
| COC(=O)C(C)=CC1C(C(=O)OCc2cccc(Cc3ccccc3)c2)C1(C)C (configuration not stated) | 6.41 |
| CC(CC(=O)c1ccc(-c2ccc(F)cc2F)cc1)C(=O)O (configuration not stated) | 3.78 |

| SMILES | logP |
| --- | --- |
| NS(=O)(=O)c1ccc(Cn2cnc3ccccc32)cc1 | 1.04 |
| CCC(C)C(N)C(=O)NC(Cc1ccc(O)cc1)C(=O)NC(C(=O)NC(C(=O)O)C(C)C)C(C)CC (configuration not stated) (H-IYIV-OH; configuration not given here) | -1.09 |
| COc1ccc(C(=O)NN=Cc2c(CO)ccc(C)c2O)cc1 | 3.34 |
| CC(C)CC(NC(=O)C(N)Cc1c[nH]c2ccccc12)C(=O)NC(CC(C)C)C(=O)NC(C(=O)O)C(C)C (configuration not stated) (H-WLLV-OH; configuration not given here) | 0.23 |
| N=C1C=CC(=C(c2ccc(N)cc2)c2ccc(N)cc2)C=C1 | -0.21 |
| CC(C)CC(NC(=O)C(N)Cc1ccc(O)cc1)C(=O)O (stereo not drawn) (H-Tyr-Leu-OH; configuration not given here) | -1.75 |
| CC(C)C1(C)N=C(c2ncc(-c3ccccc3)cc2C(=O)O)NC1=O (configuration not stated) | 2.24 |
| Clc1ccc(Cl)c2c1oc1c(Cl)ccc(Cl)c12 | 5.6 |
| CCN(CC)CCSC(=NO)c1noc(-c2ccccc2)n1 | 3.05 |
| CC(=O)NC(CCCNC(=O)N(CCCl)N=O)C(=O)NCc1ccccc1 (configuration not stated) | 1.33 |
| CN1CCN(CCn2nc3ccccc3n2)CC1 | 0.74 |
| CS(=O)c1ccc2c(c1)C(c1ccccc1)=NCC(=O)N2 (configuration not stated) | 0.8 |
| Clc1ccccc1CNc1ncnc2nc[nH]c12 | 2.76 |
| Cc1cccc2c1OP(=O)(OCC1C=CC(n3cc(C)c(=O)[nH]c3=O)O1)OC2 (configuration not stated) | 0.71 |
| Cc1cccc(CNc2[nH]cnc3ncnc2-3)c1 | 2.62 |
| CCCCCCCNCc1ccc(C)cc1 | 5.12 |
| CCCN(CCCCC(NC(C)=O)C(=O)NCc1ccccc1)C(=O)NCCCl (configuration not stated) | 1.13 |
| COc1cc(OC)nc(Sc2cccc(Oc3ccccc3)c2C(=O)O)n1 | 4.15 |
| CCCCNc1ncnc2nc[nH]c12 | 2 |
| Cc1c(O)c(=O)ccn1CCCOC(=O)c1ccc(N(C)C)cc1 | 1.66 |
